Reference: patent publication US20240208972A1, “LRRK2 INHIBITORS AND USES THEREOF” (NEURON23, INC., priority 2022, published 2024)

Tests used:
Caco-2 cells = experiment: Caco-2 bidirectional permeability; type: in vitro ADME; conditions: for Caco-2 A2B (10^−6 cm/s): A to B; for Caco-2 A2B (10^−6 cm/s) / Caco-2 B2A (10^−6 cm/s): HBSS pH 7.4, 2 hours; for Caco-2 B2A (10^−6 cm/s): B to A; for Caco-2 ER: Efflux Ratio=Papp (BA)/Papp (AB)
Method in brief: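 Caco-2 monolayers grown 21–28 days on PET inserts were run in duplicate in HBSS with 10 mM HEPES, pH 7.4. Compound was tested in both directions at […] for 2 h at 37 °C and quantified by LC-MS/MS. Papp, % recovery and efflux ratio (B-A/A-B) were calculated, with lucifer yellow checking monolayer integrity.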

[1] = Brain penetration (Kp,uu) in CD-1 mice, with plasma and brain tissue binding by equilibrium dialysis; type: in vivo; conditions: mouse, brain and plasma (unbound), male CD-1 mice, single IV bolus 1 mg/kg
Description: The compounds disclosed herein were tested on CD-1 mice for brain penetration (Kp, uu) according to the following procedures.
Nine male CD-1 mice were administered TEST COMPOUND by single intravenous bolus administration at 1 mg/kg. The vehicle used for IV study was 5% DMSO, 5% solutol, 20% PEG300 and 70% water. The detailed dosing and sampling regimens are described in the following tables.
1.0 mg of test compound was accurately weighed into a glass vial, and slowly added with 104 μL of DMSO and vortexed for 1 min. Then 104 μL of solutol was added and vortexed for 1 min. Then 415 μL of PEG300 was added and vortexed for 1 min. Then 1000 μL of water was added and vortexed for 1 min. Finally, 451 μL of water was added and vortexed for 1 min to get a clear solution.
The body weights were in the range from 28.81 to 31.25 g for males on the first dosing day. All animals received a single intravenous bolus administration of TEST COMPOUND from the tail vein.
Each blood collection (about 0.06 mL per time point) was performed from saphenous vein of each animal into pre-chilled commercial K2-EDTA tubes as anti-coagulant and placed on wet ice until centrifugation.
Plasma samples were then prepared by centrifuging the blood samples at approximately 4° C., 3200×g for 10 minutes. All plasma samples were then quickly frozen over dry ice and kept at −60° C. or lower until LC-MS/MS analysis.
Brain tissue was homogenized using homogenizing buffer (15 mM PBS (pH7.4): MeOH=2:1) at the ratio of 1:9 (1 g tissue with 9 mL buffer, the dilution ratio is 10). The tissue homogenate was kept at −60° C. or lower until LC-MS/MS analysis.
The concentrations of TEST COMPOUND in plasma and brain were determined by using an LC-MS/MS method.
The plasma and brain concentration of TEST COMPOUND in study animals was subjected to a non-compartmental pharmacokinetic analysis by using the Phoenix WinNonlin software program (version 6.3 or above, Pharsight). The linear/log trapezoidal rule was applied in obtaining the PK parameters.
Individual plasma and brain concentration values that were below the lower limit of quantitation (LLOQ) were excluded from the PK parameter calculation. The nominal dose levels and nominal sampling times were used in the calculation of all pharmacokinetic parameters.
Mouse Kp, uu=(% free in mouse brain*concentration in mouse brain)/(% free in mouse plasma*concentration in mouse plasma)
The dialysis apparatus was assembled according to the manufacturer's instruction. Each Cell was filled with 120 μL of spiked plasma sample and dialyzed against equal volume of dialysis buffer (PBS). The assay was performed in duplicate. The dialysis plates were sealed and incubated in an incubator at 37° C. with 5% CO2 and rotated at 100 rpm for 6 hours. At the end of incubation, the seals were removed and 50 μL of samples from both buffer and plasma chambers were transferred to a 96-well plate.
All calculations were carried out using Microsoft Excel. The concentrations of test compound and control compound in the buffer and plasma chambers were determined from peak area ratios (PAR) of analyte to internal standard. Protein binding (% unbound and % bound) and recovery (% recovery) of test and control compounds was calculated as follows:
• 1. Thawing of the frozen brain (stored at −80° C.) • Frozen brain tissue was thawed at room temperature in a bath. Only brain tissue was used that was thawed no more than once. • 2. Preparation of brain tissue homogenate • Brain tissue homogenate was prepared by diluting one quantity (g) of the whole brain tissue with three volumes (mL) of buffer (PBS, pH 7.4) and homogenizing the mixture using a tissue homogenizer. Brain tissue homogenate was frozen at −80° C. for later use/comparison. • 3. Preparation of working solutions • The working solutions of test compound and the control compound propranolol were prepared in dimethyl sulfoxide (DMSO) at the concentration of 200 μM. […]

[2] = Human liver microsomal clearance (hLM Cl); type: in vitro ADME; conditions: cells marked *
[3] = target: T1, wt human LRRK2, catalytic site (Homo sapiens, UniProt Q5S007); experiment: TR-FRET LanthaScreen Tb Kinase Activity Assay, LRRK2 kinase inhibition; type: biochemical; conditions: 2 nM wt human LRRK2, 400 nM peptide, 38 μM ATP
T1 construct: wt human LRRK2, catalytic site, catalytic site (ThermoFisher/USA); purchased ThermoFisher
Method in brief: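 TR-FRET LanthaScreen format: 2 nM wt human LRRK2 catalytic domain with 400 nM fluorescein-ERM (LRRKtide) and 38 μM ATP in Kinase Buffer A, after 15 min compound preincubation. Reaction 120 min at RT, then EDTA plus Tb-anti-pLRRKtide antibody for 60 min; emission ratios analysed per kit protocol.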

T1 sequence (Q5S007 1879-2138 limits assumed): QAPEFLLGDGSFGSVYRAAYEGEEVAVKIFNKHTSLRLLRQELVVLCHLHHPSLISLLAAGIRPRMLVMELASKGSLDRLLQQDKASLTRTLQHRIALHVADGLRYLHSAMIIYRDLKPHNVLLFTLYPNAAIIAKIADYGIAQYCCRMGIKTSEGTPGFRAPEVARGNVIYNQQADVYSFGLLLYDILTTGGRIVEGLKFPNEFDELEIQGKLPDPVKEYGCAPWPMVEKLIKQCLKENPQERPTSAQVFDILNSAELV

| SMILES | Caco-2 A2B (10^−6 cm/s) (Caco-2 cells) | Caco-2 B2A (10^−6 cm/s) (Caco-2 cells) | Caco-2 ER (Caco-2 cells) | Kp uu [1] | IC50 [3] | hLM Cl (mL/min/kg) [2] |
| --- | --- | --- | --- | --- | --- | --- |
| Cc1n[nH]c2c1N=C(c1c(F)cccc1F)Nc1c-2cc(N2CCC[C@@]3(CCOC3)C2)nc1C (single isomer, unassigned) [Example 49] | H (H (High permeability)”: A2B (B2A)>5) | H (H (High permeability)”: A2B (B2A)>5) | N (N (Non-substrate)”: ER<2.5) | 0.2 to 0.4 | < 2 nM | I* (I (Intermediate C1)”: 6.3 mL/min/kg≤Hep Cl≤14.7 mL/min/kg) |
| Cc1n[nH]c2c1N=C(c1c(F)cccc1F)Nc1c-2cc(N2CCN(C)[C@@H](C(F)(F)F)C2)nc1C (single isomer, unassigned) [Example 37] | H (H (High permeability)”: A2B (B2A)>5) | H (H (High permeability)”: A2B (B2A)>5) | N (N (Non-substrate)”: ER<2.5) | 0.2 to 0.4 | < 2 nM | I* (I (Intermediate C1)”: 6.3 mL/min/kg≤Hep Cl≤14.7 mL/min/kg) |
| Cc1n[nH]c2c1N=C(c1c(F)cccc1F)Nc1c-2cc(N2CCOCC2)nc1C(F)(F)F [Example 4, 4-[8-(2,6-difluorophenyl)-5-methyl-11-(trifluoromethyl)-3,4,7,9,12-pentazatricyclo[8.4.0.02,6]tetradeca-1(10),2(6),4,7,11,13-hexaen-13-yl]morpholine] | M (M (Moderate permeability)”: 1≤A2B (B2A)≤5) | L (L (Low permeability)”: A2B(B2A)<1) | N (N (Non-substrate)”: ER<2.5) |  | 2 to 100 nM | I* (I (Intermediate C1)”: 6.3 mL/min/kg≤Hep Cl≤14.7 mL/min/kg) |
| [2H]C([2H])([2H])c1n[nH]c2c1N=C(c1c(F)cccc1F)Nc1ccc(N3CCO[C@H](C)C3)cc1-2 [Example 11, (2R)-4-[5-(2,6-difluorophenyl)-3-(trideuteriomethyl)-1,6-dihydropyrazolo[4,3-d][1,3]benzodiazepin-9-yl]-2-methyl-morpholine] | H (H (High permeability)”: A2B (B2A)>5) | H (H (High permeability)”: A2B (B2A)>5) | N (N (Non-substrate)”: ER<2.5) | 0.2 to 0.4 | 2 to 100 nM | L* (L (Low C1)”: Hep Cl<6.3 mL/min/kg) |

Continued, in another order:

| Caco-2 A2B (10^−6 cm/s) (Caco-2 cells) | Caco-2 B2A (10^−6 cm/s) (Caco-2 cells) | Caco-2 ER (Caco-2 cells) | Kp uu [1] | IC50 [3] | SMILES | hLM Cl (mL/min/kg) [2] |
| --- | --- | --- | --- | --- | --- | --- |
| H (H (High permeability)”: A2B (B2A)>5) | H (H (High permeability)”: A2B (B2A)>5) | N (N (Non-substrate)”: ER<2.5) | 0.2 to 0.4 | < 2 nM | Cc1n[nH]c2c1N=C(c1c(F)cccc1F)Nc1c-2cc(N2CCN(CCF)[C@@H](C)C2)nc1C [Example 21, (S)-5-(2,6-difluorophenyl)-9-(4-(2-fluoroethyl)-3-methylpiperazin-1-yl)-3,7-dimethyl-1,6-dihydropyrazolo[4,3-d]pyrido[4,3-f][1,3]diazepine] | L* (L (Low C1)”: Hep Cl<6.3 mL/min/kg) |
| H (H (High permeability)”: A2B (B2A)>5) | H (H (High permeability)”: A2B (B2A)>5) | N (N (Non-substrate)”: ER<2.5) | 0.2 to 0.4 | < 2 nM | Cc1n[nH]c2c1N=C(c1c(F)cccc1F)Nc1ccc(N3CCN(C)C(C(F)(F)F)C3)cc1-2 (centres unmarked) [Example 6, 5-(2,6-difluorophenyl)-3-methyl-9-[4-methyl-3-(trifluoromethyl)piperazin-1-yl]-1,6-dihydropyrazolo[4,3-d][1,3]benzodiazepine] | L* (L (Low C1)”: Hep Cl<6.3 mL/min/kg) |
